Measurements published in EPA's ToxValDB 9.5.
Converted amounts (≈) assume the structure as drawn. Values belong to the compound of their own block, whether it stands above or below them.

Assays:
[1] = tested on: Sus scrofa; settings: oral, Not specified
[2] = tested on: Meleagris sp.; settings: subchronic; duration: 42 days; oral; feed; M/F; But big 6; no effects
[3] = tested on: Gallus gallus; settings: for LEL: subchronic, oral, diet, M/F, no effects
[4] = tested on: Tagia sp.; settings: for LC50: acute
[5] = tested on: Bibionidae; settings: chronic/long-term; duration: 28 days; seedling emergence
[6] = tested on: Anas platyrhynchos; settings: oral, mortality
[7] = tested on: Colinus virginianus; settings: for LC50 / LD50: acute, oral; for LC50: diet
[8] = tested on: Daphnia magna; settings: chronic/long-term; duration: 21 days; reproduction
[9] = tested on: Rattus norvegicus; settings: for LD50: acute, mortality
[10] = tested on: Oncorhynchus mykiss; settings: acute
[11] = tested on: Ovis sp.; settings: subchronic, oral, diet
[12] = tested on: Bovidae; settings: oral, diet; for LEL: no effects
[13] = tested on: Oryctolagus sp.
[14] = tested on: Canidae
[15] = tested on: Danio rerio; settings: acute; duration: 96 hours; mortality
[16] = tested on: Mus musculus; settings: acute; inhalation; mortality
[17] = tested on: Typhlodromus pyri; assay: LR50; higher = less toxic; settings: acute, mortality
[18] = tested on: Apis mellifera; settings: acute, mortality
[19] = tested on: Plant; settings: not reported; seedling emergence
[20] = tested on: Pleurozium sp.; settings: acute; duration: 72 hours; growth
[21] = tested on: Pontoscolex corethrurus; settings: chronic/long-term; growth
[22] = tested on: Lymnaea stagnalis; settings: chronic/long-term; duration: 50 days
[23] = reproduction developmental, body weight

Structure (SMILES): C[Se]CCC(O)C(=O)O (stereo not given) [Butanoic acid, 2-hydroxy-4-(methylseleno)-]
- LEL ([1]; subchronic, duration: 42 days, diet, M/F, no effects): 5 mg/kg-day
- LEL [2]: 5 mg/kg
- LEL ([3]; duration: 35 days): 5 mg/kg-day
- LEL ([3]; duration: 42 days): 5 mg/kg-day

- LEL ([3]; duration: 43 days, Chicken): 625 mg/kg-day
Structure (SMILES): CCCc1ncc(C[n+]2ccccc2C)c(N)n1.Cl.[Cl-] [Amprolium hydrochloride]
- NOEC ([4]; reproductive, reproduction): 100 mg/kg
- NOEC [5]: 101 mg/kg

Structure (SMILES): CC[N+](CC)(CC(=O)Nc1c(C)cccc1C)Cc1ccccc1.O=C([O-])c1ccccc1 [Denatonium benzoate]
- LC50 ([6]; short-term, feed): 842 mg/kg-day
- LC50 ([7]; mortality): 778 mg/kg-day
- LD50 ([7]; mortality): 196 mg/kg
- NOEC [8]: 5 mg/L

Structure (SMILES): O=c1[nH]c(=O)[nH]c(=O)[nH]1 [Cyanuric acid]
- LEL ([1]; acute, duration: 3 days, diet, no effects): 400 mg/kg-day
- NOAEL ([9]; chronic, duration: 2 years, oral, drinking water, histopathology: nonneoplastic): 154 mg/kg-day
- LEL ([10]; duration: 3 days, oral, capsule, no effects): 390 mg/kg-day
- NOAEL ([11]; duration: 77 days, body weight): 600 mg/kg-day

- LEL ([12]; subchronic, duration: 56 days, F): 350 mg/kg-day
Structure (SMILES): C[C@H]1O[C@H](O[C@H]2[C@H](O)[C@@H](O)[C@@H](O[C@@H]([C@H](O)[C@@H](O)C=O)[C@H](O)CO)O[C@@H]2CO)[C@H](O)[C@@H](O)[C@@H]1N[C@H]1C=C(CO)[C@@H](O)[C@H](O)[C@H]1O [Acarbose]

- LEL ([12]; short-term, duration: 28 days): 0.15 mg/kg-day
- LEL ([11]; gross pathology): ≥ 2.5 mg/kg-day
Structure (SMILES): CO[C@@H]1[C@@H](OC)[C@H](C)[C@@](O)(CC(=O)O)O[C@H]1[C@H](C)[C@H]1O[C@@]2(CC[C@@](C)([C@H]3CC[C@@](C)([C@@H]4O[C@@H]([C@H]5O[C@](C)(O)[C@H](C)C[C@@H]5C)C[C@@H]4O[C@@H]4C[C@H](OC)[C@@H](OC)[C@H](C)O4)O3)O2)C[C@H](O)[C@H]1C.N [Maduramicin ammonium]
- LEL ([1]; repeat dose other, diet, mortality): 37.5 mg/kg-day
- NOEL ([9]; chronic, duration: 2 years, oral, diet): 0.16 mg/kg-day
- NOAEL ([9]; chronic, duration: 2 years, oral, diet, M/F, organ weight): 0.12 mg/kg-day
- NOAEL ([9]; reproduction developmental, M/F, body weight): 0.1 mg/kg-day
- LOAEL ([13]; short-term, duration: 2 weeks, oral, diet, mortality): 0.075 mg/kg-day
- NOAEL ([14]; acute, duration: 3 hours, M/F, Beagle, no effects): ≥ 0.1 mg/kg-day

Structure (SMILES): O=S(=O)(F)F [Sulfuryl fluoride]
- NOAEL ([9]; chronic, duration: 2 years, histopathology: nonneoplastic): 20 mg/kg-day
- NOEL ([9]; short-term, duration: 2 days, F, Fischer 344): 300 mg/kg-day
- NOAEL ([9]; subchronic, duration: 90 days, inhalation, histopathology: nonneoplastic): 100 mg/kg-day
- LC50 [15]: 0.89 µg/mL (≈ 8.72 µM)
- LC50 [16]: 1.67 µg/mL (≈ 16.4 µM)

Structure (SMILES): C#CCOc1ccc(CCNC(=O)C(OCC#C)c2ccc(Cl)cc2)cc1OC (stereo not given) [Mandipropamid]
- LD50 ([9]; oral): > 5000 mg/kg-day
- NOEL ([9]; chronic, body weight): 20 mg/kg-day
- NOAEL ([9]; chronic, duration: 2 years, body weight): 15.2 mg/kg-day
- LD50 ([6]; acute, unspecified): > 1000 mg/kg-day
- NOAEL ([14]; subchronic, duration: 90 days, oral, Dog Other, body weight): 25 mg/kg-day
- LC50 ([7]; mortality): > 2140 mg/kg-day
- NOEL ([7]; reproduction developmental): 83.6 mg/kg-day

Structure (SMILES): O=C(O)Cn1cncn1 [1,2,4-Triazole-1-acetic acid]
- NOAEL [9, 23]: 100 mg/kg-day
- NOAEL [13, 23]: 100 mg/kg-day

Structure (SMILES): [Ca+2].[S-]SSS[S-] [Calcium polysulfide]
- LR50 ([17]; duration: 7 days): 113 g/ha
- LD50 ([9]; oral): 1340 mg/kg-day
- NOAEL ([9]; subchronic, duration: 90 days, oral, clinical chemistry): 150 mg/kg-day
- LC50 ([10]; duration: 96 hours, mortality): 2.67 µg/mL
- LC50 ([4]; mortality): > 1000 mg/kg
- LD50 ([18]; duration: 48 hours, oral, unspecified): > 69.8 µg/piece

Structure (SMILES): O=C(Nc1ccc([N+](=O)[O-])cc1)Nc1ccc([N+](=O)[O-])cc1 [4,4'-Dinitrodiphenylurea]
- NOEC [19]: 2.9 mg/kg
- NOEC [20]: 0.042 µg/L
- LC50 ([4]; duration: 14 days, no effects): > 1000 mg/kg

Structure (SMILES): ClC1=C(Cl)C2(Cl)C3C(Cl)C=CC3C1(Cl)C2(Cl)Cl (stereo not given) [Heptachlor]
- NOAEL ([12]; subchronic, F): 6 mg/kg-day
- LEL ([1]; subchronic, duration: 78 days, histopathology: nonneoplastic): 2 mg/kg-day
- LOAEL ([3]; repeat dose other, reproduction): 0.01 mg/kg-day

Structure (SMILES): OC[C@H]1OC(O[C@H]2[C@H](O)[C@@H](CO)OC(O[C@H]3[C@H](O)[C@@H](CO)OC(O)[C@@H]3O)[C@@H]2O)[C@H](O)[C@@H](O)[C@@H]1O (stereo not given in full) [Laminaran]
- LR50 [17]: 115 g/ha
- LD50 ([9]; oral): > 2000 mg/kg-day
- NOAEL ([9]; subchronic, duration: 90 days, oral, no effects): 1000 mg/kg-day
- LD50 ([7]; mortality): > 1700 mg/kg-day
- LEL ([7]; chronic, mortality): > 170 mg/kg-day
- NOEC [21]: 262 mg/kg
- LC50 [15]: > 71.3 µg/mL
- LD50 ([18]; dermal): > 100 µg/piece
- LD50 ([18]; oral, unspecified): > 119 µg/piece

Structure (SMILES): O=[N+]([O-])[O-].O=[N+]([O-])[O-].O=[N+]([O-])[O-].[Al+3] [Aluminum nitrate]
- NOEC [22]: 0.1 mg/L
